According to ChEMBL document CHEMBL1201862, “PubChem BioAssay data set” (2004):
Activity calls are given as the source filed them.

Columns and labels:
HEK293 [1] = experiment: PMA/Ionomycin induced NF-kB luciferase assay in 293- NF-kB-Luc stable cells. [Related pubchem assays: 1299, 1270, 1295, 1375, 1287, 1281, 1293, 1291, 1289, 1280, 465, 1364, 1282, 1372, 1365, 1370, 1367, 1366, 1269, 1373, 1292, 1290, 1302, 1371, 1283, 1271, 1294, 1374, 1368, 1369 ]; format: functional, cell-based; conditions: Homo sapiens
[2] = target: Luciferin 4-monooxygenase (Photinus pyralis, UniProt P08659); experiment: In vitro luciferase assay using purified luciferase. [Related pubchem assays: 1299, 1270, 1295, 1375, 1287, 1281, 1293, 1291, 1289, 1280, 465, 1364, 1282, 1372, 1365, 1370, 1367, 1366, 1266, 1373, 1292, 1290, 1302, 1371, 1283, 1271, 1294, 1374, 1368, 1369 ]
HEK293 [3] = experiment: Cytotoxicity assay in HEK293 cells. [Related pubchem assays (depositor defined):AID1266, AID1269, AID1270, AID1271, AID1280, AID1281, AID1282, AID1283, AID1287, AID1289, AID1290, AID1291, AID1292, AID1293, AID1294, AID1295, AID1299, AID1302, AID1364, AID1365, AID1366, AID1367, AID1369, AID1370, AID1371, AID1372, AID1373, AID1374, AID1375, AID1384 …; format: functional, cell-based; conditions: Homo sapiens
[4] = target: Cyclin-dependent kinase 5/CDK5 activator 1 (Homo sapiens, UniProt Q00535); experiment: blockade of human CDK5 activity – biochemical, cherry-picked samples, set 2, dose response (AID 504545)
[5] = target: T1, Neuropeptides B/W receptor type 1 (Homo sapiens, UniProt P48145); experiment: Fluorescence-based dose response cell-based high throughput screening assay to identify antagonists of the G-protein coupled receptor 7 (GPR7). [Related pubchem assays: 1952 (Screening assay (GPR7 antagonists).), 1880 (Summary AID.)]; format: functional
T1 sequence (P48145 whole entry): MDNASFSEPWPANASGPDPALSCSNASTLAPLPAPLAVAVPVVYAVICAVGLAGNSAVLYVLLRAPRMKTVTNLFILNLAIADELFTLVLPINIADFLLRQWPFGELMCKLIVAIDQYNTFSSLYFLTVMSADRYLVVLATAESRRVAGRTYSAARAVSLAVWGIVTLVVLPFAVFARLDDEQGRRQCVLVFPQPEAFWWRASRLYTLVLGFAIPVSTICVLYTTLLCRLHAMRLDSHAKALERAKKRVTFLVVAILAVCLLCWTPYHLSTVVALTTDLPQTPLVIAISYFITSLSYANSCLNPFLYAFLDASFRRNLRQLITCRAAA

[6] = target: Melanin-concentrating hormone receptor 1 (Homo sapiens, UniProt Q99705); experiment: Fluorescence-based counterscreen for antagonists of the G-protein coupled receptor 7 (GPR7): cell-based high throughput dose response assay to identify antagonists of the melanin-concentrating hormone receptor 1 (MCHR1).; format: functional
[7] = Trypanosoma cruzi growth suppression in host cells – NIH3T3 host cells, beta-gal luminescence, confirmation (AID 2044); format: functional, cell-based;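 also: intracellular parasites grown in NIH/3T3 mouse fibroblasts as host cells; luminescent beta-galactosidase reporter signal from transgenic T. cruzi replicating inside host cells; inhibitors lower the luminescence signal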
[8] = NIH3T3 cell viability loss – ATP luminescence, mouse fibroblasts, counter-screen, dose response (AID 2010); format: functional, cell-based;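 also: cells exposed to compound for about 90 hours before reading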
Tumor necrosis factor = Tumor necrosis factor (Homo sapiens, UniProt P01375); experiment: analog potency on TNFa NF-kB signaling – cell-based, revised, SAR follow-up (AID 2337); format: functional
[9] = target: T2, Nucleotide-binding oligomerization domain-containing protein 1 (Homo sapiens, UniProt Q9Y239); experiment: blockers of NOD1 pathway activity – revised, SAR follow-up (AID 2333); format: functional
T2 sequence (Q9Y239 whole entry): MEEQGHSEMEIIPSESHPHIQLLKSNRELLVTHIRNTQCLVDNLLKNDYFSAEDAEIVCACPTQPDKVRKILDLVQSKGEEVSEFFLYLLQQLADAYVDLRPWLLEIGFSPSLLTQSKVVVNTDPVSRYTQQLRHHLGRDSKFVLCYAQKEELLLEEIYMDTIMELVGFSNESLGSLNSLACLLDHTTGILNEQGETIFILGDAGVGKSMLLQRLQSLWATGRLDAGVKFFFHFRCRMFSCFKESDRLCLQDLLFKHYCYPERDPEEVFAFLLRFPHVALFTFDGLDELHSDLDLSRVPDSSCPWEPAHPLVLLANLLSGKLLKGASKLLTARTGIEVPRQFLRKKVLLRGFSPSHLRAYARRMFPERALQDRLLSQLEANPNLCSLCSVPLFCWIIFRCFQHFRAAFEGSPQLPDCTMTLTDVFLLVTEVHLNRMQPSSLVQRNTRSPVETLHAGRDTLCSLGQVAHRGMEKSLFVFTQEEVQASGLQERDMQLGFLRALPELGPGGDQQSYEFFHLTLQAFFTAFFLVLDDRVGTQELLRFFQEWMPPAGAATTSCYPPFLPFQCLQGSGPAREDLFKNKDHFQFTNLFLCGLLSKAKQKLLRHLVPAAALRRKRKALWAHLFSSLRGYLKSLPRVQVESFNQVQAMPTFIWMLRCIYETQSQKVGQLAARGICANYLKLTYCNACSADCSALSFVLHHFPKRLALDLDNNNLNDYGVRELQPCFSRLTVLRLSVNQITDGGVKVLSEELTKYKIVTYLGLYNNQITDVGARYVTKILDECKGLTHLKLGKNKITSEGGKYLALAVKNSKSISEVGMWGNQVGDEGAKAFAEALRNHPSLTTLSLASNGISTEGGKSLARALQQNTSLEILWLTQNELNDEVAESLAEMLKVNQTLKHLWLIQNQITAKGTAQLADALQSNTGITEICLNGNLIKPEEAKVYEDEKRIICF

Interleukin-8 = Interleukin-8 (Homo sapiens, UniProt P10145); experiment: SAR analysis of tumor necrosis factor alpha (TNF-alpha) induced IL-8 secretion in MCF-7/NOD1 cells. [Related pubchem assays (depositor defined):AID1575, AID2250, AID2260]; format: functional, cell-based
[10] = target: Nucleotide-binding oligomerization domain-containing protein 2 (Homo sapiens, UniProt Q9HC29); experiment: PubChem AID 2334; format: functional
HEK293 [11] = experiment: cells; conditions: Homo sapiens
HEK293 [12] = experiment: inhibition of NOD1-driven NF-kB reporter – cell-based, luminescence, uHTS, primary screen (AID 1578); format: functional; conditions: Homo sapiens
HEK293 [13] = experiment: cells; format: functional, cell-based; conditions: Homo sapiens
[14] = target: Transitional endoplasmic reticulum ATPase (Homo sapiens, UniProt P55072, C522A); experiment: C522A mutant p97 ATPase inhibitors, dose response, counter-screen for p97 inhibitor project, biochemical, luminescence (AID 1544)
HEK293 [15] = experiment: cells; format: functional, cell-based; conditions: Homo sapiens; remark: listed apart in the source
[16] = CCR5-tropic HIV-1 fusion blockers – cell-based, CCR5-tropic Env, dose response (AID 2279); format: functional
HEK293 [17] = experiment: NOD2 signaling inhibitors in MDP-stimulated cells, cell-based, uHTS, luminescence (AID 2001); format: functional; conditions: Homo sapiens
[18] = target: Transitional endoplasmic reticulum ATPase (Homo sapiens, UniProt P55072); experiment: p97 ATPase inhibitors, dose response, biochemical (AID 1534)
[19] = target: Induced myeloid leukemia cell differentiation protein Mcl-1 (Homo sapiens, UniProt Q07820); format: functional
Nonstructural protein 1 = Nonstructural protein 1 (Influenza A virus, UniProt Q194T2); format: functional, Influenza A virus (A/California/07/2009(H1N1))
Vero = experiment: viability of Vero cells under compound – cytotoxicity control for flavivirus capping enzyme inhibitors (AID 588742); format: functional; conditions: Chlorocebus sabaeus
Genome polyprotein = Genome polyprotein (dengue virus type 2, UniProt P29990); experiment: flavivirus cap methylation enzyme inhibition – biochemical, confirmation dose response, primary screen (AID 588689); format: functional
[20] = target: T3, Histone-lysine N-methyltransferase NSD2 (Homo sapiens, UniProt O96028); format: biochemical
T3 sequence (O96028 whole entry): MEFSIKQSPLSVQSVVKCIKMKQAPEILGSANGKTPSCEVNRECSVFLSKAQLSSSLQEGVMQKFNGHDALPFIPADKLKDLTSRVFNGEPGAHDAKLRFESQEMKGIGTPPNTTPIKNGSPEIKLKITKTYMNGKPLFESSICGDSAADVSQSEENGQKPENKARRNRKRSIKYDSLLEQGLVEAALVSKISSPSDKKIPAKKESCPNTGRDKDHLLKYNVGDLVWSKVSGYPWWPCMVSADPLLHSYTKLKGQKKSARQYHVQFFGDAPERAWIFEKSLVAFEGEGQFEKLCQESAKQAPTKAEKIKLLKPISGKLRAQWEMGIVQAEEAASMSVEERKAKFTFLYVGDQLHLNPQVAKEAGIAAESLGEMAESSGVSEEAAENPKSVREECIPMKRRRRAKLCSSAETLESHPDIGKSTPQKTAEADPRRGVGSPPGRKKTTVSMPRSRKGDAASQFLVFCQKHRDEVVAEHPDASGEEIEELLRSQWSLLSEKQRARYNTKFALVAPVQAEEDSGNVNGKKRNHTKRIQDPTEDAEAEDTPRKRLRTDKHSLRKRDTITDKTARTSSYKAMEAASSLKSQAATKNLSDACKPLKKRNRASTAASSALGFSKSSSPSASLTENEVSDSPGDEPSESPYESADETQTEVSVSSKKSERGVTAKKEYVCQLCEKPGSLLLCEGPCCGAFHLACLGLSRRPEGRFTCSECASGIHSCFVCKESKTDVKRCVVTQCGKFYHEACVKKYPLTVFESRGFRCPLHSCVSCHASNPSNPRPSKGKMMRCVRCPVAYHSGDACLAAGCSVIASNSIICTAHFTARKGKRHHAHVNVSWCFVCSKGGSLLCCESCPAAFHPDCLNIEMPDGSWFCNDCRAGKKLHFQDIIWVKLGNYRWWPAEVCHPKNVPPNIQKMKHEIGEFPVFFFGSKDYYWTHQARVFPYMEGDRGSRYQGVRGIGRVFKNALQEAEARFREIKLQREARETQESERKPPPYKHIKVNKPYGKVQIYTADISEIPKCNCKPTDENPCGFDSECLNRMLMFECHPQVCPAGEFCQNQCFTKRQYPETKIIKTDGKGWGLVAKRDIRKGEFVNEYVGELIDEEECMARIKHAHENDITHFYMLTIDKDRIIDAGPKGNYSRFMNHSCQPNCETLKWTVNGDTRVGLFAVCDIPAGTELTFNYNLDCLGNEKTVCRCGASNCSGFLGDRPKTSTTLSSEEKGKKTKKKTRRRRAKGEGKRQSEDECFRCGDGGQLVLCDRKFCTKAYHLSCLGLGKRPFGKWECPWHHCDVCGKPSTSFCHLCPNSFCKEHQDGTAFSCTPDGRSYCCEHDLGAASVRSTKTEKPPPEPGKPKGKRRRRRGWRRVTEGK

Luciferin 4-monooxygenase, sequence (P08659 whole entry): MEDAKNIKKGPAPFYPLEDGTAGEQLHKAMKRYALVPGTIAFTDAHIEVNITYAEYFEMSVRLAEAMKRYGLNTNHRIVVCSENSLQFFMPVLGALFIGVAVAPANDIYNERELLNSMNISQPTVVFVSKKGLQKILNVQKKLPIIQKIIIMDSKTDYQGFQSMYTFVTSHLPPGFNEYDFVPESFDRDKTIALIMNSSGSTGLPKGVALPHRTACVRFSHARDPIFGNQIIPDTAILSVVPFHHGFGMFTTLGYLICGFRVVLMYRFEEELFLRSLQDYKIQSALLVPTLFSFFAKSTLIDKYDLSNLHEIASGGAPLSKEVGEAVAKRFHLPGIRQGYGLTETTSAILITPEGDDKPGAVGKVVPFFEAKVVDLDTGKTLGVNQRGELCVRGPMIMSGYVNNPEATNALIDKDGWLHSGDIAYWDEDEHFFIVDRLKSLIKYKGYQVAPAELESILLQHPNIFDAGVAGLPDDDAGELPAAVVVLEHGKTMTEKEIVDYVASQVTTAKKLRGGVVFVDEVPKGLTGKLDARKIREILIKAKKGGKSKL
Transitional endoplasmic reticulum ATPase (Homo sapiens, UniProt P55072), sequence (P55072 whole entry): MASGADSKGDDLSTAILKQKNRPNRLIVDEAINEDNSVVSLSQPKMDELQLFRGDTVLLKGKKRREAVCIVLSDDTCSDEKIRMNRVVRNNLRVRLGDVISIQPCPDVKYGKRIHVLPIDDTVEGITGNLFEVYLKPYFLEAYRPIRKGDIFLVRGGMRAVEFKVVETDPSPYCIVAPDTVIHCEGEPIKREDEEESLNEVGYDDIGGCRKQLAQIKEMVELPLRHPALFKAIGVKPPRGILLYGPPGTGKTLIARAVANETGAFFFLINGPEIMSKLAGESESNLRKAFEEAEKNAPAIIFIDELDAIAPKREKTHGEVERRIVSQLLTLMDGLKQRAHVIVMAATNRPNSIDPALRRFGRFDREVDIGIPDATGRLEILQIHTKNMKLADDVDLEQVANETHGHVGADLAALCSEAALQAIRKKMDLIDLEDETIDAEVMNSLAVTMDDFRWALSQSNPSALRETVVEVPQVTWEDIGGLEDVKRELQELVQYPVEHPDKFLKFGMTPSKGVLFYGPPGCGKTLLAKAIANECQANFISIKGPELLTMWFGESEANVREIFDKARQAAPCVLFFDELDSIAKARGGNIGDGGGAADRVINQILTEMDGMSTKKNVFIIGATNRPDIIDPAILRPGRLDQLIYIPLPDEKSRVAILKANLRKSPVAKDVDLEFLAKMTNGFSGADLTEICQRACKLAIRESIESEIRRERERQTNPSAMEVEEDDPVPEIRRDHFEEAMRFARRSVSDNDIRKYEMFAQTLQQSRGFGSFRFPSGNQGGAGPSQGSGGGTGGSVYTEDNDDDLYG
Cyclin-dependent kinase 5/CDK5 activator 1, sequence (Q00535 whole entry): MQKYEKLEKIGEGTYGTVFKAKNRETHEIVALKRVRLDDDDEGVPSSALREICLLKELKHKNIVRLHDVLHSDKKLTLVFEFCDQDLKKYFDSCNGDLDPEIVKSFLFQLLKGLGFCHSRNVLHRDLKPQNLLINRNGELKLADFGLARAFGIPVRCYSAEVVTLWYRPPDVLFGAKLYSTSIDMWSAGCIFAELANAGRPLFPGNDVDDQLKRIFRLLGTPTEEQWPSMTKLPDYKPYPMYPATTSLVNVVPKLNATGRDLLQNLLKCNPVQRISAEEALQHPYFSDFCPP
Cyclin-dependent kinase 5/CDK5 activator 1, sequence (Q15078 whole entry, further chain): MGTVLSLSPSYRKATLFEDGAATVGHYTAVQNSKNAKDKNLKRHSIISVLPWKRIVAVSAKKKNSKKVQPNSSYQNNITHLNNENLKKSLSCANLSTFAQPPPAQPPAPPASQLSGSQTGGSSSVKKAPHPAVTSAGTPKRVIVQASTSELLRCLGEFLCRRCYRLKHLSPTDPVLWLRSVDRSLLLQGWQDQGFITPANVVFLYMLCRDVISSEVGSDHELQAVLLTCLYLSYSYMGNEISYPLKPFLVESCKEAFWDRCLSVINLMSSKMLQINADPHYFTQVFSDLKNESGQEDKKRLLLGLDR
Tumor necrosis factor, sequence (P01375 whole entry, the tested form may be a part): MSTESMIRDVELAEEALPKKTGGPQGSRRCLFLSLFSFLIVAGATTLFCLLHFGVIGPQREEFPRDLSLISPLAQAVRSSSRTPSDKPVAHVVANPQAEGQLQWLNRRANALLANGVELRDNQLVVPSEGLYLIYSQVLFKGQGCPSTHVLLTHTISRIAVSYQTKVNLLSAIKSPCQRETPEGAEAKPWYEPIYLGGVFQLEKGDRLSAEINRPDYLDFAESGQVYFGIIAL
Nonstructural protein 1, sequence (Q194T2 whole entry): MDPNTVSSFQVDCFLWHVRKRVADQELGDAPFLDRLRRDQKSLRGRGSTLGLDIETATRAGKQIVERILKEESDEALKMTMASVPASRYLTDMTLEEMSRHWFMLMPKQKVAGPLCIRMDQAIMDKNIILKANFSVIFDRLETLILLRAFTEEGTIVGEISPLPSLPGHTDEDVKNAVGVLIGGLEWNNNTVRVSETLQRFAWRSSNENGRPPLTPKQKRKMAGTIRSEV
Transitional endoplasmic reticulum ATPase (Homo sapiens, UniProt P55072, C522A), sequence (P55072 2-806 C522A limits assumed): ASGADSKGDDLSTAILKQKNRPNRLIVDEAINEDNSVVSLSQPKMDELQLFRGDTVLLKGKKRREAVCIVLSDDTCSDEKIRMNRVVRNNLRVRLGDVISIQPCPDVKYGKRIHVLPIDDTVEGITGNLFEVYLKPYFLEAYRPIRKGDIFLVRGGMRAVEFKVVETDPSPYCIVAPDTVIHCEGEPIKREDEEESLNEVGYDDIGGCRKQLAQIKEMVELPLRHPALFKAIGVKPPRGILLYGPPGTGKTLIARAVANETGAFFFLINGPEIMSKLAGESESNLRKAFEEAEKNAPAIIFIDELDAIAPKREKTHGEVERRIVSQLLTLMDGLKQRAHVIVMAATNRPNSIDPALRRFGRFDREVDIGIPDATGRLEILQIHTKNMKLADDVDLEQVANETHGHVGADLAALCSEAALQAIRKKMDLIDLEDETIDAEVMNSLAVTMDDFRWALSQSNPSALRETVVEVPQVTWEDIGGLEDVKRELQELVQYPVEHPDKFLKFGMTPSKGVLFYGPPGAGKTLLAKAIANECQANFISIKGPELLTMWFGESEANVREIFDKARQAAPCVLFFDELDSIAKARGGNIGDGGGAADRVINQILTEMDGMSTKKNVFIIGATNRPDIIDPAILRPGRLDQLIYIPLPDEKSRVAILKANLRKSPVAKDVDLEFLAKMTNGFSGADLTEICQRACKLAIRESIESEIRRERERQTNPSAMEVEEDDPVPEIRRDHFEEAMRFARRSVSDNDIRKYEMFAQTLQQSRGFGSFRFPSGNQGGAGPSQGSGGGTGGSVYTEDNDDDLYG
Interleukin-8, sequence (P10145 whole entry, the tested form may be a part): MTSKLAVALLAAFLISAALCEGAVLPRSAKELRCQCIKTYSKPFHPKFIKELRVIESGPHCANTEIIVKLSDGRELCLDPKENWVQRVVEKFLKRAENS
Melanin-concentrating hormone receptor 1, sequence (Q99705 whole entry): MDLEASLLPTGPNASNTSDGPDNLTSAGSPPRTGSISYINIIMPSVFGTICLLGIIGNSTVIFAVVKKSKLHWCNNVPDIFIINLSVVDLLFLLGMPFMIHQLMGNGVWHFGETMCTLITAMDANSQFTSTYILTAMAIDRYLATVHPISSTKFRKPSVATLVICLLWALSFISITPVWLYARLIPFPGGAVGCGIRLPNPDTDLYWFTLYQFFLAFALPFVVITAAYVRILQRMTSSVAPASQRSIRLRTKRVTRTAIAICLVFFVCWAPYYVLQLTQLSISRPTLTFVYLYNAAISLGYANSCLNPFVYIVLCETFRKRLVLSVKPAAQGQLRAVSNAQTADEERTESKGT
Induced myeloid leukemia cell differentiation protein Mcl-1, sequence (Q07820 whole entry): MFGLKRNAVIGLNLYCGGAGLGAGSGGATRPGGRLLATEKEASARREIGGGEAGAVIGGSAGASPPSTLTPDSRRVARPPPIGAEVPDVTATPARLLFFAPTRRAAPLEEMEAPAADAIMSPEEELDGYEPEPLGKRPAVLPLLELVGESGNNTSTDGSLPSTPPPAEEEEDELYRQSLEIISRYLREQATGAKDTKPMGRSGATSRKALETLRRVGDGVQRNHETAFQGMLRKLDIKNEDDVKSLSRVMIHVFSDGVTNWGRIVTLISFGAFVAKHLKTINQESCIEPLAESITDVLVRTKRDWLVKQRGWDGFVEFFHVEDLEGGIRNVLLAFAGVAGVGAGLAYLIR
Genome polyprotein, sequence (P29990 2492-3391 limits assumed): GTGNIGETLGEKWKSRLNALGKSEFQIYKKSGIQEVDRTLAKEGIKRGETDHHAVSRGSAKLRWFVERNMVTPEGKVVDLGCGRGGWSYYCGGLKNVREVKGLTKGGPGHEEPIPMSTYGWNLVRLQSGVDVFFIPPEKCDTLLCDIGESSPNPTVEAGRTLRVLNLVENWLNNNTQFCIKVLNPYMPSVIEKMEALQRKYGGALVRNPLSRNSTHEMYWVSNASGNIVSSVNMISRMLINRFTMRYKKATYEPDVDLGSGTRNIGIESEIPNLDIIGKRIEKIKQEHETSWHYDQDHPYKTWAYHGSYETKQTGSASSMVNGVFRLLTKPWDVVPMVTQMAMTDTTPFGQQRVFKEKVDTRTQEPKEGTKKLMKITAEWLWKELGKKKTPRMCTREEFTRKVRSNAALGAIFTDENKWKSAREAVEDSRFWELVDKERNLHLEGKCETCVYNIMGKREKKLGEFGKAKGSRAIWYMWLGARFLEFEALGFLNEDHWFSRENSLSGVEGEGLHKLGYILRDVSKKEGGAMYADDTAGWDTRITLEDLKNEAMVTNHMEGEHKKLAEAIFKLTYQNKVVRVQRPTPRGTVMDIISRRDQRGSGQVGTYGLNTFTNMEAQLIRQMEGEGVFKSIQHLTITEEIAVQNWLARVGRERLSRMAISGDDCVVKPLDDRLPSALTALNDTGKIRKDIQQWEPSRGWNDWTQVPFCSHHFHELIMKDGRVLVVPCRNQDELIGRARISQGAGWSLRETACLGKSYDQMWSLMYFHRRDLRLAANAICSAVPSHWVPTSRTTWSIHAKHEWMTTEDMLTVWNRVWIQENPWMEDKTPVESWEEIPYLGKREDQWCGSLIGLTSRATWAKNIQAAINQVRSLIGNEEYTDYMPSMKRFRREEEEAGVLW

COc1ccc(CNC(=O)c2ccc([N+](=O)[O-])o2)cc1
EC50 (HEK293 [1]): 4.24 µM (not active)
EC50 [2]: > 8 µM (not active)
EC50 (HEK293 [3]): > 8 µM (inactive)

CC(C)n1cnc2c(Nc3cccc(F)c3)nc(NCCO)nc21
AC50 [4]: 5.86 µM (active)

CC(C)C(=O)N1CCN(c2ccccc2NC(=O)c2ccc([N+](=O)[O-])o2)CC1
IC50 [5]: > 43.8 µM (not active)
IC50 [6]: 64.4 µM (not active)
EC50 [7]: 0.431 µM (active)
EC50 [8]: > 60 µM (not active)

O=C(O)c1c(NC(=O)N2CCOCC2)sc2c1CCCC2
IC50 (Tumor necrosis factor): > 20 µM (inactive)
IC50 [9]: 1.47 µM (active)
IC50 (Interleukin-8): > 25 µM (inactive)
IC50 [10]: > 20 µM (inactive)
IC50 (HEK293 [11]): > 20 µM (inactive)

CCn1nc([N+](=O)[O-])c(C(C#N)c2nc3cc(C(F)(F)F)ccc3s2)c(Cl)c1=O (stereo not given)
EC50 (HEK293 [12]): 6.94 µM (active)
IC50 (HEK293 [13]): 2.78 µM (active)
IC50 [14]: > 50 µM (not active)
IC50 (HEK293 [15]): 11 µM (active)
IC50 [16]: 11.9 µM (active)
IC50 (HEK293 [17]): 3.47 µM (inactive)
IC50 [18]: > 50 µM (not active)
IC50 [19]: 3.87 µM (active)
IC50 (Nonstructural protein 1): 19.9 µM (active)
CC50 (Vero): > 40 µM (active)
IC50 (Genome polyprotein): 57.5 µM (active)
AC50 [20]: 19 µM (active)
